Laboratory results reported in US8735620B2, “Processes for preparing (E)-styrylbenzylsulfone compounds and uses thereof for treating proliferative disorders” (priority 2008, dated 2014).

Assays:
[1] = tested on: human vascular endothelial cells (HUVEC); assay: Cell cycle analysis by flow cytometry, normal cells; assay type: cell-based; settings: 20 nM, 24 hr intervals
Description: (§1) FIG. 2 Preferential tumor cell killing activity of 6aa. A. Cell Cycle analyses. Normal (HUVEC) and tumor cells (DU145) were treated with 20 nM concentration of 6aa and incubated in medium containing 10% fetal bovine serum. At 24 hr intervals, the cells were fixed, stained with propidium iodide and analyzed for their DNA content by flow Cytometry. B. Induction of apoptosis in normal (HUVEC) and tumor cells (DU145) was assessed by western blot analysis of cell lysates treated with 6aa for 24, 48 and 72 h. The Western blots were probed with anti-PARP antibodies to assess the cleavage of the protein.
(§2) Human prostate tumor cells, DU145 cells, and normal diploid human lung fibroblasts, HFL-1 cells, were grown in DMEM (Cellgro) supplemented with 10% fetal bovine serum and 1 unit/mL penicillin-streptomycin. The cells were plated onto 100 mm^2 dishes at a cell density of 1.0×10^6 cells/dish, and 24 h later, they were treated with 2.5 μM of the compound. The cells were harvested 24, 48 and 72 h after treatment. The cells were removed from the plate by trypsin digestion and combined with the non-attached cells found in the medium. The cell pellets were washed in phosphate buffered saline (PBS), and fixed in ice cold 70% ethanol for at least 24 h. […] The stained cells were then analyzed on a Becton-Dickinson (BD) (FACScan) flow cytometer and the data analyzed by cell cycle analysis software (Modfit, BD).

MIA-PaCa-2 cells = assay: Soft agar colony formation, MIA-PaCa-2; assay type: cell-based, human; settings: MIA-PaCa-2, dose dependent, three weeks
Description: FIG. 1 Anti-tumor effects of (E)-2,4,6-Trimethoxystyryl-3-Hydroxy-4-Methoxybenzyl Sulfone (6aa). A. 6aa inhibits the growth of parental (MES-SA) and Paclitaxel resistant (MES-SA/DX5) cell lines with equal efficiency. The parental uterine sarcoma cells and the MDR positive (MES-SA/DX5) cells were plated into 6 well dishes and treated with various concentrations of 6aa and Paclitaxel for 96 h. The number of viable cells from duplicate plates was determined by trypan blue exclusion. B. Soft Agar Assays. MIA-PaCa-2 cells (1.0×10^5) were plated in soft agar containing various concentrations of each compound in triplicates. After three weeks of growth, the plates were stained for 48 h using 0.05% nitroblue tetrazolium solution. Representative plates were photographed using an Olympus stereoscope mounted with a Sony digital camera system (DKC5000, Sony Inc).
The soft agar plates were prepared as described by Cosenza, et al (Cosenza, S. C. et al. In Cell Growth, Differentiation and Senescence, Studzinski, G. P., Ed.; Oxford University Press: 1999, 161-176.). Briefly, Noble bottom agar (0.8%) was plated onto 60 mm tissue culture plates. Exponentially growing MIA-PaCa-2 cells (1.0×10^5) were mixed with growth medium with various concentrations of each compound and mixed with Noble agar to a final concentration of 0.4%. Each concentration was plated in triplicate. The top agar was allowed to solidify and the plates were then incubated at 5% CO2 at 37° C. for 3 weeks. The plates were then stained with 0.05% nitroblue tetrazolium (NBT) solution and representative plates were photographed using an Olympus stereoscope mounted with a Sony digital camera system (DKC5000, Sony Inc).

HUVEC = assay: PARP cleavage western blot, normal cells; assay type: cell-based, human; settings: HUVEC, 24, 48 and 72 h
Description: as §1
BT20 cells were plated at a density of 3.0×10^6 cells per 150 mm^2 plate and treated 24 h later with either DMSO or 6aa. The cells were collected at the indicated time points and cell pellets were frozen. The frozen cell pellets were lysed in 1% NP40/PBS lysis buffer containing protease inhibitors. Equal amounts of total cellular protein was then resolved on a 10%-SDS-polyacrylamide gel. The gels were transferred onto nitrocellulose paper (S/S), hybridized with anti-PARP antibodies (BD) and developed using ECL (Perkin-Elmer, MA) solution.

Sk-OV-3 = assay: Tumor cell killing, Sk-OV-3; assay type: cell-based, human; settings: Sk-OV-3, OVARIAN; read-out: Tumor cell killing (IC50) concentration
Description: (§3) Tissue Culture and Reagents: Paclitaxel was purchased from Sigma. Cell lines were purchased from ATCC. Cell lines were routinely grown in DMEM or RPM1 (CellGro) supplemented with 10% fetal bovine serum (Atlas) and 1 unit/mL penicillin-streptomycin (Gibco).
(§4) A number of tumor cell lines were tested using a dose response end point assay system. The cells were grown in either DMEM or RPMI supplemented with 10% fetal bovine serum and 1 unit/mL Penicillin-Streptomycin solution. The tumor cells were plated into 6 well dishes at a cell density of 1.0×10^5 cells/mL/well and compounds were added 24 h later at various concentrations. Cell counts were determined from duplicate wells after 96 h of treatment. The total number of viable cells was determined by trypan blue exclusion.

DU145 = assay: Soft agar colony formation, DU145; assay type: cell-based, human; settings: DU145, dose dependent
SW480 = assay: Tumor cell killing, SW480; assay type: cell-based, human; settings: SW480, COLO-RECTAL; read-out: Tumor cell killing (IC50) concentration
Description: as §3, §4

K562 = assay: Tumor cell killing, K562; assay type: cell-based, human; settings: K562, CML; read-out: Tumor cell killing (IC50) concentration
Description: as §3, §4

HCT-116 = assay: Tumor cell killing, HCT-116; assay type: cell-based, human; settings: HCT-116, COLO-RECTAL; read-out: Tumor cell killing (IC50) concentration
Description: as §3, §4

[2] = tested on: DU145 (prostate cancer) cells; assay: Cell cycle analysis by flow cytometry, tumor cells; assay type: cell-based, human; settings: DU145, 20 nM, 24 hr intervals
Description: as §1, §2

bone marrow cells = assay: Bone marrow harvest and colony formation assay; assay type: in vivo, CD-1 mice; settings: 100 mg/kg intravenously, 12, 24 and 48 h after injection
Description: FIG. 4 Bone marrow toxicity profile of 6ab. To assess the toxicity of 6ab, the phosphate salt of the drug was injected into mice (100 mg/Kg) and bone marrow harvested from femur and tibia after 12, 24 and […] following the injection of the drug. The bone marrow cells were cultured in methylcellulose medium supplemented with a mixture of stem cell factor, GM-CSF, IL-3 and erythropoietin for one week and colony forming units were determined.
Bone marrow was harvested from femur and tibia of CD-1 mice injected with 200 μL of PBS or 6ab [10 mg/mL:100 mg/kg dose] at 12, 24, or 48 h before the sacrifice. The bone marrow cells were cultured in Methylcellulose medium supplemented with 50 ng/mL rmStem Cell Factor, 10 ng/mL rmIL-3, 10 ng/mL rh IL-6, 200 μg/mL human Transfeffin, and 3 units/mL rhErythropoietin (Stem Cell Technologies, Vancouver, BC, Canada). Cultures were seeded in duplicates using 35 mm plastic petri dishes and colony forming units were determined after one week.

Structure (SMILES): COc1cc(OC)c(/C=C/S(=O)(=O)Cc2ccc(OC)c(O)c2)c(OC)c1 [6aa, (E)-2,4,6-Trimethoxystyryl-3-Hydroxy-4-Methoxybenzyl Sulfone]
- effect on cell cycle progression [1]: block of their cell cycle progression in the G1 phase
- growth of tumor cells in soft agar (MIA-PaCa-2 cells): complete inhibition of the growth of tumor cells
- PARP cleavage (HUVEC): No PARP cleavage was observed
- IC50 (Sk-OV-3): 6 nM
- growth of tumor cells in soft agar (DU145): complete inhibition of the growth of tumor cells
- IC50 (SW480): 7 nM
- IC50 (K562): 4 nM
- IC50 (HCT-116): 9 nM
- effect on cell cycle progression [2]: gradually accumulated in the G2/M phase
- in vitro hematopoietic colony formation of bone marrow cells (bone marrow cells): no reduction in total, myeloid or lymphoid colony formation
